Test results: PMC6628159 (Marine Drugs, 2019)
Where “and” joins values, the source holds several entries; their conditions need not be identical. Equal values may be shown once. Read-outs that look alike come from different tables or passages of the source.

Columns and labels:
recombinant human HDAC2 = target: T1, recombinant human HDAC2 (Homo sapiens, UniProt Q92769); assay: Recombinant human HDAC2 enzymatic assay (Ac-peptide-AMC, fluorescence); type: biochemical
T1 construct: purchased BPS Biosciences
Experimental: (§1) The assays were carried out by Shanghai ChemPartner Co., Ltd. (Shanghai, China). Briefly, different concentrations of compounds were incubated with recombinant human HDAC1, HDAC2, HDAC3, HDAC6, and HDAC8 (BPS Biosciences, San Diego, CA, USA) at room temperature for 15 min, which was followed by adding Ac-peptide-AMC substrates to initiate the reaction in Tris-based assay buffer. Reaction mixtures were incubated at room temperature for 60 min in the HDAC1, HDAC2, HDAC3, and HDAC6 assays, and were incubated for 240 min in the HDAC8 assay. Then a stop solution containing trypsin was added. The coupled reaction was incubated for another 90 min at 37 °C. […] IC50 values were calculated by GraphPad Prism version 4.00 Windows (GraphPad Software, San Diego, CA, USA).

MDA-MB-231 tumor cells = assay: MTT assay, growth inhibition of MDA-MB-231 cells; type: cell-based; conditions: Homo sapiens, read-out: IC50 ± SD MDA-MB-231 growth inhibition
Experimental: (§2) Cells (600,000 cells/well) were seeded in 96-well plates and incubated for 24 h before being treated with various concentrations of compounds or solvent control. Cells were further incubated for 72 h and then treated with MTT and incubated for another 3 h. The media were then removed and 100 µL DMSO was added to each well. The absorbance at 550 nm was measured by a SpectraMAX340 microplate reader (Molecular Devices, Sunnyvale, CA, USA) with a reference wavelength at 690 nm.

recombinant human HDAC8 = target: T2, recombinant human HDAC8 (Homo sapiens, UniProt Q9BY41); assay: Recombinant human HDAC8 enzymatic assay (Ac-peptide-AMC, fluorescence); type: biochemical
T2 construct: purchased BPS Biosciences
T2 sequence (Q9BY41 1-377): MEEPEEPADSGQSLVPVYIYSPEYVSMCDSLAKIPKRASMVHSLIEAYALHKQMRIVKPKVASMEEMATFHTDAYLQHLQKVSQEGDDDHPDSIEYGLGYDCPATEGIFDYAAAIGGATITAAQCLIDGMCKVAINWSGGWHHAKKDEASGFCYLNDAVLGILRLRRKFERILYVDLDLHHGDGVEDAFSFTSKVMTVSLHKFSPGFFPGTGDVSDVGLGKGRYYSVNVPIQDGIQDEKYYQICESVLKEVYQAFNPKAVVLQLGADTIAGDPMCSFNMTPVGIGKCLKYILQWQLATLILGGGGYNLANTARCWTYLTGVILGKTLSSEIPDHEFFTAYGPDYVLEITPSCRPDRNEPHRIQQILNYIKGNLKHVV
Experimental: as §1

HCT116 tumor cells [1] = assay: MTT assay, growth inhibition of HCT116 cells; type: cell-based; conditions: seven-dose IC50 mode in duplicate, four-fold serial dilution
Experimental: as §2

recombinant human HDAC1 = target: T3, recombinant human HDAC1 (Homo sapiens, UniProt Q13547); assay: Recombinant human HDAC1 enzymatic assay (Ac-peptide-AMC, fluorescence); type: biochemical
T3 construct: purchased BPS Biosciences
Experimental: as §1

SK-OV-3 tumor cells = assay: MTT assay, growth inhibition of SK-OV-3 cells; type: cell-based; conditions: seven-dose IC50 mode in duplicate, four-fold serial dilution
Experimental: as §2

A549 tumor cells = assay: MTT assay, growth inhibition of A549 cells; type: cell-based; conditions: Homo sapiens, read-out: IC50 ± SD A549 growth inhibition
Experimental: as §2

recombinant human HDAC3 = target: T4, recombinant human HDAC3 (Homo sapiens, UniProt O15379); assay: Recombinant human HDAC3 enzymatic assay (Ac-peptide-AMC, fluorescence); type: biochemical; conditions: 10-dose IC50 mode in duplicate, threefold serial dilution; 60 min reaction; read-out: IC50 ± SD HDAC3
T4 construct: purchased BPS Biosciences
Experimental: as §1

recombinant human HDAC6 = target: T5, recombinant human HDAC6 (Homo sapiens, UniProt Q9UBN7); assay: Recombinant human HDAC6 enzymatic assay (Ac-peptide-AMC, fluorescence); type: biochemical; conditions: read-out: IC50 ± SD HDAC6
T5 construct: purchased BPS Biosciences
T5 sequence (Q9UBN7 1-1215): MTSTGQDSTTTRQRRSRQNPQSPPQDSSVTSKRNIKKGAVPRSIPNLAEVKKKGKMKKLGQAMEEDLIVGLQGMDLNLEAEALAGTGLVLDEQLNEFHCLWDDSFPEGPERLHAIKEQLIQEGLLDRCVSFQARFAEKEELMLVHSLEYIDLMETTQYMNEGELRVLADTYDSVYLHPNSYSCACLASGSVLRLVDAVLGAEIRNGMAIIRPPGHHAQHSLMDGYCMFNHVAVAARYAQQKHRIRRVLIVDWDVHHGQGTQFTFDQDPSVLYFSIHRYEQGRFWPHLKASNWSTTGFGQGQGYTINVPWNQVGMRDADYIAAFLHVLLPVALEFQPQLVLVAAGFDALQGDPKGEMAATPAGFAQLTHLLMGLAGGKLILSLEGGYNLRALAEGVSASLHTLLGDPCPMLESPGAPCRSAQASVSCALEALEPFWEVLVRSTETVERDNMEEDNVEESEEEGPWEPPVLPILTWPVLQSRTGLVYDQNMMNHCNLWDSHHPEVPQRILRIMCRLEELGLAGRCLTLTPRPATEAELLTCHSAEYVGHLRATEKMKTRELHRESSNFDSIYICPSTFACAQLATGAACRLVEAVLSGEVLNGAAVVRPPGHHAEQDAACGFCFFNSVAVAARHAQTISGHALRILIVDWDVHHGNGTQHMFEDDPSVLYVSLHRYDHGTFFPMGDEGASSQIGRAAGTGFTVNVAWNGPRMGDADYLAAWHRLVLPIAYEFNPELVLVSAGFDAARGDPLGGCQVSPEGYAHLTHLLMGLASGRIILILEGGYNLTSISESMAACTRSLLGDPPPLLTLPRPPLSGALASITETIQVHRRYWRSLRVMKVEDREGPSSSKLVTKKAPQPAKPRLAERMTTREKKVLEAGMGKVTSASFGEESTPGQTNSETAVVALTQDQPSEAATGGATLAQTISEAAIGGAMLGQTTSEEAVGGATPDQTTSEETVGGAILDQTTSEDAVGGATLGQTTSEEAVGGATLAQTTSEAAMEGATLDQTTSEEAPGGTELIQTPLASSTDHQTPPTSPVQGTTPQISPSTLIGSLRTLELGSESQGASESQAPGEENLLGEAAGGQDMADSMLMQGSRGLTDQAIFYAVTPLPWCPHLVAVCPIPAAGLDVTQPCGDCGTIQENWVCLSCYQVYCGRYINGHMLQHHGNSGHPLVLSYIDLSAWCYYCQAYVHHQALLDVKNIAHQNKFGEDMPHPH
Experimental: as §1

HCT116 tumor cells [2] = conditions: reported by Leusch; read-out: IC50 HCT116 growth inhibition (data in parentheses) (converted); cited from earlier work
[3] = 10-dose IC50 mode in duplicate, threefold serial dilution, 240 min reaction, read-out: IC50 ± SD HDAC8
[4] = IC50 value ratio of HDAC 1 versus HDAC 6

T3 sequence (Q13547 whole entry): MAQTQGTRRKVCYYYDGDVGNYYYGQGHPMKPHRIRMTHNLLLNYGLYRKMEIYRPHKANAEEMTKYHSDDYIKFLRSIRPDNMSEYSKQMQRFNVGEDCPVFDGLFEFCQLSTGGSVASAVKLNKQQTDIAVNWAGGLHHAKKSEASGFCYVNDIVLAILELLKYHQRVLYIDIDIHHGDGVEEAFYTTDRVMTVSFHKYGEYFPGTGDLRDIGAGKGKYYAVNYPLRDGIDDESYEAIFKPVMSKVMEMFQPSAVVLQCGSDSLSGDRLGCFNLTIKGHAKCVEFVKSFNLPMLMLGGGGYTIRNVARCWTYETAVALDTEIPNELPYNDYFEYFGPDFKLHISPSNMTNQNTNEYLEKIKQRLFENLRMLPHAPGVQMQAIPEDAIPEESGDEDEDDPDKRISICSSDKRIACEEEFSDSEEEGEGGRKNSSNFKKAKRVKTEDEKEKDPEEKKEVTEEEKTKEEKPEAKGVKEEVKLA
T4 sequence (O15379 whole entry): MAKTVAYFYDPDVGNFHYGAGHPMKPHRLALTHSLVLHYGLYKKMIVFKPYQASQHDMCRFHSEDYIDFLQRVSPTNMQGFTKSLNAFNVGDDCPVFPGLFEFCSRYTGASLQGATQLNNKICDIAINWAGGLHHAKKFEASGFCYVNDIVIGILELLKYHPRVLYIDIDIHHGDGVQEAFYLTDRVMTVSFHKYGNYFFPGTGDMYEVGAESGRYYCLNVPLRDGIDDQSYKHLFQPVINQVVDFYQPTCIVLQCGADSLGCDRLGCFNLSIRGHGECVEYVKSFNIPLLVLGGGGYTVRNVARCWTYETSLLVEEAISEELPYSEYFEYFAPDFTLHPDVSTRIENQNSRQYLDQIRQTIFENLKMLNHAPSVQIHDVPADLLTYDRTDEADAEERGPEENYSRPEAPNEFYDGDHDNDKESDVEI
T4 sequence (Q9Y618 395-489 partner limits assumed): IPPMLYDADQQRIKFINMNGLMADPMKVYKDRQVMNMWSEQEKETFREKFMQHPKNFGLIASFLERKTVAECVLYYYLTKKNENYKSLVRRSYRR
T1 sequence (Q92769 whole entry): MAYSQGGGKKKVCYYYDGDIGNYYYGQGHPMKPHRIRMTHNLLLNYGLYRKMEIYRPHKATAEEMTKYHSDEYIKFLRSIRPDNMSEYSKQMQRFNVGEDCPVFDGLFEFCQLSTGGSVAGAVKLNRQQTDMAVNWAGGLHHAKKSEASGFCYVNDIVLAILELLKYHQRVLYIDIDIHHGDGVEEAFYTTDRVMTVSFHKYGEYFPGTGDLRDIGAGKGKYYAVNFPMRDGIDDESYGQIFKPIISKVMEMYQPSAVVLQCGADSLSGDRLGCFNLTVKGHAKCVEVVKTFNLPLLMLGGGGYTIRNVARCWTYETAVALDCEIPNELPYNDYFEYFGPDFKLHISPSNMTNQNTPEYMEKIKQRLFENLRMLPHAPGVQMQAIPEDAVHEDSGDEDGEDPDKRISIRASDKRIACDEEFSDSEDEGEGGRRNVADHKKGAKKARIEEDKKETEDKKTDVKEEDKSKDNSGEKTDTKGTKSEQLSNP

Structure (SMILES) | IC50 (recombinant human HDAC2; read-out: IC50 ± SD HDAC2) | IC50 (recombinant human HDAC8) | IC50 (recombinant human HDAC3) | IC50 (recombinant human HDAC6) | IC50 (recombinant human HDAC8; [3]) | Selectivity (HDAC1/6) (recombinant human HDAC1; [4]) | IC50 (recombinant human HDAC1; read-out: IC50 ± SD HDAC1) | also measured
CCCCCCCC(=O)SCC/C=C(\F)[C@@H]1CC(=O)NCc2nc(cs2)C2=N[C@@](C)(CS2)C(=O)N[C@@H](C(C)C)C(=O)O1 [Compound 16a, S-((Z)-4-Fluoro-4-((5R,8S,11S/R)-8-isopropyl-5-methyl-6,9,13-trioxo-10-oxa-3,17-dithia-7,14,19,20-tetraazatricyclo[14.2.1.12,5]icosa-1(18),2(20),16(19)-trien-11-yl)but-3-en-1-yl) octanethioate] | 1.817 ± 0.017 µM | 0.255 ± 0.092 µM | – | – | – | – | – | IC50 (MDA-MB-231 tumor cells; MDA-MB-231, MTT, 72 h, seven-dose IC50 mode in duplicate, four-fold serial dilution): 3.85 ± 0.44 µM; IC50 (HCT116 tumor cells [1]; Homo sapiens, HCT-116, MTT, 72 h, read-out: IC50 ± SD HCT116 growth inhibition): 0.81 ± 0.13 µM; IC50 (recombinant human HDAC1): 0.385 ± 0.045 µM; IC50 (SK-OV-3 tumor cells; Homo sapiens, SK-OV-3, MTT, 72 h, read-out: IC50 ± SD SK-OV-3 growth inhibition): 0.25 ± 0.13 µM; IC50 (A549 tumor cells; A549, MTT, 72 h, seven-dose IC50 mode in duplicate, four-fold serial dilution): 0.52 ± 0.12 µM
CC(C)[C@@H]1NC(=O)[C@]2(C)CSC(=N2)c2csc(n2)CNC(=O)C[C@@H](/C(F)=C/CCS)OC1=O [Compound 15a, (5R,8S,11S/R)-11-((Z)-1-Fluoro-4-mercaptobut-1-en-1-yl)-8-isopropyl-5-methyl-10-oxa-3,17-dithia-7,14,19,20-tetraazatricyclo[14.2.1.12,5]icosa-1(18),2(20),16(19)-triene-6,9,13-trione] | 0.021 ± 0.0003 µM | – | 0.0392 µM and 0.039 µM | 0.3 ± 0.005 µM | 0.0085 ± 0.0025 µM | 68 | 0.0044 ± 0.0002 µM | selectivity towards HDAC 1 over HDAC 6 (recombinant human HDAC1; [4]): about 68 fold
C[C@@]12CSC(=N1)c1csc(n1)CNC(=O)C[C@@H](/C(F)=C/CCS)OC(=O)[C@H](Cc1ccccc1)NC2=O [Compound 15b] | 0.0162 ± 0.0004 µM | – | 0.0371 ± 0.0007 µM | 0.338 ± 0.017 µM | 0.0176 ± 0.0041 µM | 80 | 0.0042 ± 0.0003 µM | –
CCCCCCCC(=O)SCC/C=C/[C@@H]1CC(=O)NCc2nc(cs2)C2=N[C@@](C)(CS2)C(=O)N[C@@H](C(C)C)C(=O)O1 [Largazole, reference compound] | – | 0.12 ± 0.058 µM | – | – | – | – | – | IC50 (recombinant human HDAC2): 1.52 ± 0.015 µM; IC50 (HCT116 tumor cells [2]): 0.044 µM; IC50 (MDA-MB-231 tumor cells; MDA-MB-231, 72 h): 1.37 ± 0.41 µM; IC50 (HCT116 tumor cells [1]; Homo sapiens, HCT-116, 72 h, read-out: IC50 ± SD HCT116 growth inhibition, MTT, 72 h): 0.184 µM; IC50 (HCT116 tumor cells [1]; read-out: IC50 ± SD HCT116 growth inhibition, MTT, 72 h): 0.18 ± 0.01 µM; IC50 (recombinant human HDAC1; 10-dose IC50 mode in duplicate, threefold serial dilution, 60 min reaction, read-out: IC50 ± SD HDAC1): 0.228 ± 0.034 µM; IC50 (SK-OV-3 tumor cells; Homo sapiens, SK-OV-3, 72 h, read-out: IC50 ± SD SK-OV-3 growth inhibition, MTT, 72 h): 0.034 µM; IC50 (SK-OV-3 tumor cells; read-out: IC50 ± SD SK-OV-3 growth inhibition, MTT, 72 h): 0.03 ± 0.01 µM; IC50 (A549 tumor cells; A549, 72 h): 0.46 ± 0.1 µM
